Source: PubChem BioAssay (NCI)
Where “and” joins values, the source holds several entries; their conditions need not be identical. Equal entries are not always repeated.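 Assay format: 96-well plates, 48-hour exposure. GI50: concentration for 50% inhibition of growth. TGI denotes the concentration required for complete inhibition of growth.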

Tests used:
Test in all cases: DTP human tumour cell line panel, 48 h
MOLT-4 leukemia = system: MOLT-4 leukemia
SR leukemia = system: SR leukemia
OVCAR-5 ovarian = system: OVCAR-5 ovarian
IGROV1 ovarian = system: IGROV1 ovarian
NCI-H522 lung = system: NCI-H522 lung
M14 melanoma = system: M14 melanoma
MDA-MB-231 breast = system: MDA-MB-231 breast
UACC-62 melanoma = system: UACC-62 melanoma
CAKI-1 renal = system: CAKI-1 renal
NCI-H460 lung = system: NCI-H460 lung

| SMILES | GI50 (MOLT-4 leukemia) | TGI (MOLT-4 leukemia) | GI50 (SR leukemia) [µM] | TGI (SR leukemia) | GI50 (OVCAR-5 ovarian) | TGI (OVCAR-5 ovarian) | GI50 (IGROV1 ovarian) | TGI (IGROV1 ovarian) | GI50 (NCI-H522 lung) | TGI (NCI-H522 lung) | GI50 (M14 melanoma) [µM] | TGI (M14 melanoma) | GI50 (MDA-MB-231 breast) | TGI (MDA-MB-231 breast) | GI50 (UACC-62 melanoma) | TGI (UACC-62 melanoma) | GI50 (CAKI-1 renal) | GI50 (NCI-H460 lung) | TGI (NCI-H460 lung) | TGI (CAKI-1 renal) |
| --- | --- | --- | --- | --- | --- | --- | --- | --- | --- | --- | --- | --- | --- | --- | --- | --- | --- | --- | --- | --- |
| CN(Cc1cnc2nc(N)nc(N)c2n1)c1ccc(C(=O)NC(CCC(=O)O)C(=O)O)cc1Br (centres undefined) | < 0.01 µM | > 46.3 µM | < 0.01 | 8.49 µM | < 0.031 µM | > 100 µM | < 0.01 µM | 1.01 µM | < 0.01 µM | 31.2 µM | < 0.01 | 5.95 µM | 6.02 µM | > 100 µM | < 0.01 µM | 7.35 µM | < 0.01 µM | < 0.01 µM | 4.9 µM | – |
| COc1cc2nc3cc([N+](=O)[O-])ccc3c(NCCNCC(C)(C)O)c2cc1OC | 0.354 µM | 10.7 µM | 0.238 | 3.04 µM | 2.22 µM | 8.87 µM | 0.457 µM | 2.16 µM | 0.256 µM | 1.04 µM | 1.29 | 3.05 µM | 0.451 µM | 2.41 µM | – | – | 2.42 µM | 0.377 µM | 1.47 µM | 11 µM |
| CCN(CC)Cc1cc2[nH]c3c4ccc(Cl)cc4ncc3c2cc1OC | 2.24 µM and 2.56 µM | > 21.8 µM and 6.8 µM | 2.36 | – | 12.4 µM and 14.5 µM | 25.9 µM and 27.5 µM | 2.13 µM and 3.42 µM | 12.4 µM and 13.6 µM | 7.16 µM and 2.2 µM | 17.7 µM and 4.97 µM | 1.88 | 3.59 µM and 3.4 µM | 1.83 µM and 1.8 µM | 7.16 µM and 4.51 µM | 15.5 µM and 1.81 µM | 29.4 µM and 3.46 µM | 3.36 µM and 2.3 µM | 1.99 µM and 2.19 µM | 4.55 µM and 5.11 µM | 9.14 µM and 9.8 µM |
| O=C(CN1C(=O)S/C(=C\C(Cl)=C\c2ccccc2)C1=O)NC1C=CS(=O)(=O)C1 (centres undefined) | 0.621 µM | > 100 µM | 0.29 | > 100 µM | 2.31 µM | 6.13 µM | 1.31 µM | 4.31 µM | 0.299 µM | 1.33 µM | 1.31 | 4.69 µM | 1.44 µM | 4.15 µM | 1.13 µM | 3.16 µM | 1.65 µM | 1.86 µM | 6.36 µM | 4.23 µM |
| CSc1ccc2c(c1)C(N1CCN(C)CC1)Cc1ccccc1S2 (centres undefined) | 1.89 µM | 8.67 µM and 3.87 µM | 1.66 | 5.21 µM and 3.83 µM | 1.95 µM | 7.25 µM and 3.67 µM | – | 7.3 µM and 4.91 µM | 1.76 µM | 10.2 µM and 3.29 µM | – | 3.77 µM and 3.53 µM | 1.85 µM | 13.7 µM and 3.65 µM | 1.8 µM | 4.2 µM and 3.3 µM | 1.62 µM | 1.74 µM | 7.12 µM and 3.45 µM | 13.3 µM and 3.33 µM |
| CCOC(=O)COc1ccc2c(C)cc(=O)oc2c1 | – | > 100 µM | – | > 100 µM | – | > 100 µM | – | > 100 µM | – | > 100 µM | – | > 100 µM | – | > 100 µM | – | > 100 µM | – | – | > 100 µM | > 100 µM |
| CCOC(=O)c1cnc2c(C)cccc2c1Nc1ccc(C(C)=O)cc1 | 43.6 µM | > 100 µM | 60.8 | > 100 µM | 34.6 µM | > 100 µM | 25.5 µM | > 100 µM | 14.9 µM | > 100 µM | 77.8 | > 100 µM | 19.7 µM | > 100 µM | 11.4 µM | > 100 µM | 79 µM | 59.3 µM | > 100 µM | > 100 µM |
